How the values were obtained:
Assay in all cases: relative viability (nuclei count vs DMSO), 5 days (fraction); higher = more cells survive
[1] = test system: NCI-H23
Summary of the method: (§1)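 Relative viability was taken as the ratio of nuclei in treated wells to nuclei in vehicle wells. Lung cancer cell lines in 1536-well plates received compounds by pin tool one day after seeding, either one drug alone or a fixed anchor-drug dose plus five library-drug doses (not always all listed) in √10 steps. Nuclei were counted on 4× images after 5 days of treatment, and values are medians of duplicate plates.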

[2] = test system: NCI-H727
Summary of the method: as §1

[3] = test system: NCI-H1993
Summary of the method: as §1

[4] = test system: NCI-H2126
Summary of the method: as §1

[5] = test system: NCI-H647
Summary of the method: as §1

[6] = test system: NCI-H2023
Summary of the method: as §1

[7] = test system: EMC-BAC-2
Summary of the method: as §1

[8] = test system: NCI-H650
Summary of the method: as §1

[9] = test system: HARA
Summary of the method: as §1

[10] = test system: NCI-H2347
Summary of the method: as §1

[11] = test system: HCC-44
Summary of the method: as §1

[12] = test system: LCLC-103H
Summary of the method: as §1

[13] = test system: NCI-H522
Summary of the method: as §1

[14] = test system: LOU-NH91
Summary of the method: as §1

[15] = test system: NCI-H838
Summary of the method: as §1

[16] = test system: NCI-H1666
Summary of the method: as §1

[17] = test system: NCI-H2087
Summary of the method: as §1

[18] = test system: NCI-H3122
Summary of the method: as §1

[19] = test system: NCI-H2009
Summary of the method: as §1

[20] = test system: BEN
Summary of the method: as §1

[21] = test system: NCI-H1395
Summary of the method: as §1

[22] = test system: 201T
Summary of the method: as §1

[23] = test system: NCI-H441
Summary of the method: as §1

`COc1cc(N2CCC(C(N)=O)CC2)ccc1Nc1nc(N)c(Cl)c(Nc2ccccc2S(=O)(=O)C(C)C)n1` [HG-5-88-01] + CC(=O)c1c(C)c2cnc(Nc3ccc(N4CCNCC4)cn3)nc2n(C2CCCC2)c1=O [Palbociclib] (partner 0.5 µM) showed a relative viability ([1]; first compound 0.04 µM) of 0.507, a relative viability ([1]; first compound 0.1265 µM) of 0.549 and a relative viability ([1]; first compound 0.4 µM) of 0.545. The relative viability ([1]; first compound 1.265 µM) was 0.378, the relative viability ([1]; first compound 4 µM) was 0.263 and the relative viability ([2]; first compound 0.04 µM) was 0.677. The relative viability ([2]; first compound 0.1265 µM) was 0.629, the relative viability ([2]; first compound 0.4 µM) was 0.66 and the relative viability ([2]; first compound 4 µM) was 0.61. For the same molecule, the relative viability ([3]; first compound 0.04 µM) was 0.662, the relative viability ([3]; first compound 0.1265 µM) was 0.69 and the relative viability ([3]; first compound 0.4 µM) was 0.793. It also gave a relative viability ([3]; first compound 4 µM) of 0.564, a relative viability ([4]; first compound 0.04 µM) of 0.363 and a relative viability ([4]; first compound 0.1265 µM) of 0.352. It also gave a relative viability ([4]; first compound 0.4 µM) of 0.378, a relative viability ([4]; first compound 1.265 µM) of 0.332 and a relative viability ([4]; first compound 4 µM) of 0.372. For the same molecule, the relative viability ([5]; first compound 0.04 µM) was 0.388, the relative viability ([5]; first compound 0.1265 µM) was 0.423 and the relative viability ([5]; first compound 1.265 µM) was 0.444. The relative viability ([5]; first compound 4 µM) was 0.494, the relative viability ([6]; first compound 0.04 µM) was 0.343 and the relative viability ([6]; first compound 0.1265 µM) was 0.355. For the same molecule, the relative viability ([6]; first compound 0.4 µM) was 0.287, the relative viability ([6]; first compound 1.265 µM) was 0.259 and the relative viability ([6]; first compound 4 µM) was 0.212. It also gave a relative viability ([7]; first compound 0.04 µM) of 0.516, a relative viability ([7]; first compound 0.1265 µM) of 0.543 and a relative viability ([7]; first compound 0.4 µM) of 0.48. The relative viability ([7]; first compound 1.265 µM) was 0.405, the relative viability ([7]; first compound 4 µM) was 0.438 and the relative viability ([8]; first compound 0.04 µM) was 0.398. For the same molecule, the relative viability ([8]; first compound 0.1265 µM) was 0.341, the relative viability ([8]; first compound 0.4 µM) was 0.338 and the relative viability ([8]; first compound 1.265 µM) was 0.303. The relative viability ([8]; first compound 4 µM) was 0.296, the relative viability ([9]; first compound 0.04 µM) was 0.234 and the relative viability ([9]; first compound 0.1265 µM) was 0.177. It also gave a relative viability ([9]; first compound 0.4 µM) of 0.2, a relative viability ([9]; first compound 1.265 µM) of 0.218 and a relative viability ([9]; first compound 4 µM) of 0.253. The relative viability ([10]; first compound 0.04 µM) was 0.439, the relative viability ([10]; first compound 0.1265 µM) was 0.417 and the relative viability ([10]; first compound 0.4 µM) was 0.467. The relative viability ([10]; first compound 1.265 µM) was 0.431, the relative viability ([10]; first compound 4 µM) was 0.425 and the relative viability ([11]; first compound 0.04 µM) was 0.983. For the same molecule, the relative viability ([11]; first compound 0.1265 µM) was 0.957, the relative viability ([11]; first compound 0.4 µM) was 0.864 and the relative viability ([11]; first compound 1.265 µM) was 0.954. It also gave a relative viability ([11]; first compound 4 µM) of 0.943, a relative viability ([12]; first compound 0.04 µM) of 0.48 and a relative viability ([12]; first compound 0.1265 µM) of 0.48. For the same molecule, the relative viability ([12]; first compound 0.4 µM) was 0.443, the relative viability ([12]; first compound 1.265 µM) was 0.504 and the relative viability ([12]; first compound 4 µM) was 0.445. The relative viability ([13]; first compound 0.04 µM) was 1.06, the relative viability ([13]; first compound 0.1265 µM) was 1.03 and the relative viability ([13]; first compound 0.4 µM) was 1.01. The relative viability ([13]; first compound 1.265 µM) was 0.829, the relative viability ([13]; first compound 4 µM) was 0.851 and the relative viability ([14]; first compound 0.04 µM) was 0.533. The relative viability ([14]; first compound 0.1265 µM) was 0.491, the relative viability ([14]; first compound 0.4 µM) was 0.585 and the relative viability ([14]; first compound 1.265 µM) was 0.509. It also gave a relative viability ([14]; first compound 4 µM) of 0.55, a relative viability ([15]; first compound 0.04 µM) of 0.189 and a relative viability ([15]; first compound 0.1265 µM) of 0.207. The relative viability ([15]; first compound 0.4 µM) was 0.173, the relative viability ([15]; first compound 1.265 µM) was 0.177 and the relative viability ([15]; first compound 4 µM) was 0.168. For the same molecule, the relative viability ([16]; first compound 0.04 µM) was 0.636, the relative viability ([16]; first compound 0.1265 µM) was 0.663 and the relative viability ([16]; first compound 0.4 µM) was 0.623. The relative viability ([16]; first compound 1.265 µM) was 0.661, the relative viability ([16]; first compound 4 µM) was 0.623 and the relative viability ([17]; first compound 0.04 µM) was 0.242. The relative viability ([17]; first compound 0.1265 µM) was 0.246, the relative viability ([17]; first compound 0.4 µM) was 0.219 and the relative viability ([17]; first compound 1.265 µM) was 0.207. It also gave a relative viability ([17]; first compound 4 µM) of 0.244, a relative viability ([18]; first compound 0.04 µM) of 0.161 and a relative viability ([18]; first compound 0.1265 µM) of 0.138. The relative viability ([18]; first compound 0.4 µM) was 0.11, the relative viability ([18]; first compound 1.265 µM) was 0.111 and the relative viability ([18]; first compound 4 µM) was 0.0988. For the same molecule, the relative viability ([19]; first compound 0.04 µM) was 0.187, the relative viability ([19]; first compound 0.1265 µM) was 0.281 and the relative viability ([19]; first compound 0.4 µM) was 0.242. It also gave a relative viability ([19]; first compound 1.265 µM) of 0.216, a relative viability ([19]; first compound 4 µM) of 0.224 and a relative viability ([20]; first compound 0.04 µM) of 0.451. The relative viability ([20]; first compound 0.1265 µM) was 0.461, the relative viability ([20]; first compound 0.4 µM) was 0.409 and the relative viability ([20]; first compound 1.265 µM) was 0.465. It also gave a relative viability ([20]; first compound 4 µM) of 0.411, a relative viability ([21]; first compound 0.04 µM) of 0.593 and a relative viability ([21]; first compound 0.1265 µM) of 0.754. The relative viability ([21]; first compound 0.4 µM) was 0.613, the relative viability ([21]; first compound 1.265 µM) was 0.474 and the relative viability ([21]; first compound 4 µM) was 0.664. It also gave a relative viability ([22]; first compound 0.04 µM) of 0.368, a relative viability ([22]; first compound 0.1265 µM) of 0.343 and a relative viability ([22]; first compound 1.265 µM) of 0.347. The relative viability ([22]; first compound 4 µM) was 0.36, the relative viability ([23]; first compound 0.04 µM) was 0.209 and the relative viability ([23]; first compound 0.1265 µM) was 0.202. The relative viability ([23]; first compound 0.4 µM) was 0.146, the relative viability ([23]; first compound 1.265 µM) was 0.152 and the relative viability ([23]; first compound 4 µM) was 0.172.
